Experimental data reported in patent US7575930B2, “Method for analyzing oligosaccharides from blood plasma” (priority 2005, dated 2009).

Legend:
[1] = Monitoring of the plasma concentration of the main oligosaccharides of a VLMWH in human volunteers (plasma filtration + anion-exchange HPLC); type: in vivo
Method: (§1) A plasma sample with a volume of between 100 and 1000 μl is withdrawn and, if appropriate, the internal standard is added to the latter.
(§2) After homogenization, the resulting solution is introduced into a 30 kD Ultrafree 05 ultrafiltration cartridge (Millipore) rinsed beforehand with 250 μl of water by centrifuging at 10 000 rev/min for 5 minutes. The plasma is introduced into the upper part of the cartridge once or twice, if the amounts to be filtered are greater than 500 μl.
(§3) The cartridge is centrifuged at 10 000 rev/min for between 1 and 2 hours and then the filtrate is withdrawn. If appropriate, the second part of the plasma to be filtered is introduced into the upper part of the cartridge and the latter is again centrifuged. The exact amount of plasma introduced will have been weighed. The cartridge is centrifuged until the protein residue in the upper part of the cartridge represents no more than approximately 10% of the initial part.
(§4) The filtrate is withdrawn and 210 μl of 3M KCl per ml of plasma filtered are added to the concentrate.
(§5) After homogenization, the cartridge is centrifuged at 10 000 rev/min for between 1 and 4 hours. The cartridge is centrifuged until the protein residue in the upper part of the cartridge represents no more than approximately 10% of the initial part.
(§6) The second filtrate is withdrawn and 210 μl of 3M KCl per ml of plasma filtered are added a second time to the concentrate.
(§7) The third filtrate is withdrawn and 250 μl of water per ml of plasma filtered are added.
(§8) The filtrates are combined and diluted 5 fold in water, and the whole is injected directly in anion-exchange HPLC. Immediately before injection, the pH of the injected solution is adjusted to 3 by addition of 1N HCl.
(§9) The filtered plasma is analyzed by anion-exchange HPLC.
(§10) The columns used are IonPAc As11 columns (Dionex), with a length of 25 cm and an internal diameter of 2 mm. The detector used is a UV spectrophotometer equipped with an array of diodes.
(§11) The whole of the […] is injected after adjustment of the pH to 3 by addition of N HCl. The flow rate chosen is 0.22 ml/min; the column temperature is 40° C.
(§12) Elution is carried out in gradient mode. The two solutions used are:
(§13) Solvent A: NaH2PO4 2.5 mM, brought to pH 2.9 by addition of H3PO4
(§14) Solvent B: NaClO4 1N, NaH2PO4 2.5 mM, brought to pH 3.0 by addition of H3PO4
(§15) The elution gradient is as follows:
(§16) T=0 min: % B=3; T=40 min: % B=60; T=60 min: % B=80
A VLMWH with an average molecular weight of 2500 Da is administered at the target dose of 1.4 mg/kg to human volunteers. Blood samples are withdrawn at the times 0, 0.25 h, 0.5 h, 0.75 h, 1 h, 1.25 h, 1.5 h, 2 h, 2.5 h, 3 h, 3.5 h, 4 h, 4.5 h, 5 h, 6 h, 7 h, 8 h, 9 h, 10 h, 12 h, 14 h and 24 h after administration.
As the VLMWH used is a complex mixture of oligosaccharides, the study was limited to certain components chosen from this mixture.

[2] = Monitoring of the plasma concentration of 3 octasaccharides in beagle dogs after subcutaneous administration (plasma filtration + anion-exchange HPLC); type: in vivo, male dogs of the beagle breed; details: 0.5 mg/kg each
Method: as §1, §2, §3, §4, §5, §6, §7, §8, §9, §10, §11, §12, §13, §14, §15, §16
The evolution of a mixture of three octasaccharides in the blood of male dogs of the beagle breed is monitored. These 3 octasaccharides, symbolized ΔIIaIIsIsIs, ΔIsIIaIIsIs and ΔIIaIIsIsIs^1,6-anhydro, are the main affinity octasaccharides of the octasaccharide fractions of Lovenox®.
The mixture is administered subcutaneously to 3 male dogs of the beagle breed at a target dose with regard to each of these 3 constituents of 0.5 mg/kg. The administration solution is a 0.9% NaCl solution of the mixture of the 3 octasaccharides at the target concentration of 0.5 mg/ml. Blood samples of 5 ml are withdrawn at the times 0, 0.25 h, 0.5 h, 1 h, 2 h, 4 h, 6 h, 8 h, 24 h, 30 h and 48 h after administration. The blood samples withdrawn are collected in tubes containing 400 μl of a CTAD (citrate, theophylline, adenosine, dipyridamole) mixture. After homogenization, the solution is centrifuged at 3000 g at 15° C. for 15 min. The plasma supernatant is recovered and stored at −20° C. until use.
For the treatment of the plasma before HPLC injection, approximately 1 ml of plasma is withdrawn and weighed, to which 50 μl of a solution of the internal standard at a concentration of approximately 0.02 g/l are added.
The internal standard is chosen so that it is structurally as close as possible to the products to be analyzed. Its structure is given below.
The tetrasaccharide used makes it possible to correct the potentional influence of the variations in the extraction yield.
The plasma is treated and analyzed by HPLC.

ATIII = ATIII (Homo sapiens, UniProt P01008); assay: Affinity for ATIII; type: binding
Sequence of ATIII (P01008 33-464, species assumed): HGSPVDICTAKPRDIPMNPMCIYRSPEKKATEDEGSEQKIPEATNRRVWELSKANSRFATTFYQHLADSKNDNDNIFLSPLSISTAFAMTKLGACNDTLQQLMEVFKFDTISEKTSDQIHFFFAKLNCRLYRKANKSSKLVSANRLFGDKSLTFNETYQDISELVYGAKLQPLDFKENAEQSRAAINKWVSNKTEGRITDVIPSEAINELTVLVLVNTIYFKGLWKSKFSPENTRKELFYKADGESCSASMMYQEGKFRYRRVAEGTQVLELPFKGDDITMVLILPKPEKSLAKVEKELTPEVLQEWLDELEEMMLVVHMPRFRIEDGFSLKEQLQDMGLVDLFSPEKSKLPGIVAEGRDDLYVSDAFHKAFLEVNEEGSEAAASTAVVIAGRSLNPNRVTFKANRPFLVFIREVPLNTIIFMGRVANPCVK

CC(=O)NC1C(OC2C(C(=O)O)OC(OC3C(COS(=O)(=O)O)OC(OC4C(C(=O)O)OC(OC5C(COS(=O)(=O)O)OC(OC6C(C(=O)O)OC(OC7C(COS(=O)(=O)O)OC(O)C(NS(=O)(=O)O)C7O)C(OS(=O)(=O)O)C6O)C(NS(=O)(=O)O)C5O)C(OS(=O)(=O)O)C4O)C(NS(=O)(=O)O)C3OS(=O)(=O)O)C(O)C2O)OC(COS(=O)(=O)O)C(OC2OC(C(=O)O)=CC(O)C2O)C1O (centres unmarked) [ΔIIaIIsIsIs]
plasma concentration ([1]; 0 h after administration of VLMWH (2500 Da) 1.4 mg/kg): 0 nM
plasma concentration ([1]; 0.25 h after administration of VLMWH (2500 Da) 1.4 mg/kg): 10 nM
plasma concentration ([1]; 0.5 h after administration of VLMWH (2500 Da) 1.4 mg/kg): 30 nM
plasma concentration ([1]; 0.75 h after administration of VLMWH (2500 Da) 1.4 mg/kg): 20 nM
plasma concentration ([1]; 1 h after administration of VLMWH (2500 Da) 1.4 mg/kg): 30 nM
plasma concentration ([1]; 1.25 h after administration of VLMWH (2500 Da) 1.4 mg/kg): 40 nM
plasma concentration ([1]; 1.5 h after administration of VLMWH (2500 Da) 1.4 mg/kg): 40 nM
plasma concentration ([1]; 2 h after administration of VLMWH (2500 Da) 1.4 mg/kg): 40 nM
plasma concentration ([1]; 2.5 h after administration of VLMWH (2500 Da) 1.4 mg/kg): 30 nM
plasma concentration ([1]; 3 h after administration of VLMWH (2500 Da) 1.4 mg/kg): 30 nM
plasma concentration ([1]; 3.5 h after administration of VLMWH (2500 Da) 1.4 mg/kg): 40 nM
plasma concentration ([1]; 4 h after administration of VLMWH (2500 Da) 1.4 mg/kg): 20 nM
plasma concentration ([1]; 4.5 h after administration of VLMWH (2500 Da) 1.4 mg/kg): 40 nM
plasma concentration ([1]; 5 h after administration of VLMWH (2500 Da) 1.4 mg/kg): 30 nM
plasma concentration ([1]; 6 h after administration of VLMWH (2500 Da) 1.4 mg/kg): 20 nM
plasma concentration ([1]; 7 h after administration of VLMWH (2500 Da) 1.4 mg/kg): 40 nM
plasma concentration ([1]; 8 h after administration of VLMWH (2500 Da) 1.4 mg/kg): 20 nM
plasma concentration ([1]; 9 h after administration of VLMWH (2500 Da) 1.4 mg/kg): 20 nM
plasma concentration ([1]; 10 h after administration of VLMWH (2500 Da) 1.4 mg/kg): 20 nM
plasma concentration ([1]; 12 h after administration of VLMWH (2500 Da) 1.4 mg/kg): 30 nM
plasma concentration ([1]; 14 h after administration of VLMWH (2500 Da) 1.4 mg/kg): 20 nM
plasma concentration ([1]; 24 h after administration of VLMWH (2500 Da) 1.4 mg/kg): 10 nM
plasma concentration ([2]; Dog 1, 0 h after subcutaneous administration): 0 nM
plasma concentration ([2]; Dog 1, 0.25 h after subcutaneous administration): 40 nM
plasma concentration ([2]; Dog 1, 0.5 h after subcutaneous administration): 180 nM
plasma concentration ([2]; Dog 1, 1 h after subcutaneous administration): 330 nM
plasma concentration ([2]; Dog 1, 2 h after subcutaneous administration): 590 nM
plasma concentration ([2]; Dog 1, 4 h after subcutaneous administration): 470 nM
plasma concentration ([2]; Dog 1, 6 h after subcutaneous administration): 360 nM
plasma concentration ([2]; Dog 1, 8 h after subcutaneous administration): 280 nM
plasma concentration ([2]; Dog 1, 24 h after subcutaneous administration): 40 nM
plasma concentration ([2]; Dog 1, 30 h after subcutaneous administration): 20 nM
plasma concentration ([2]; Dog 1, 48 h after subcutaneous administration): 0 nM
plasma concentration ([2]; Dog 2, 0 h after subcutaneous administration): 0 nM
plasma concentration ([2]; Dog 2, 0.25 h after subcutaneous administration): 50 nM
plasma concentration ([2]; Dog 2, 0.5 h after subcutaneous administration): 100 nM
plasma concentration ([2]; Dog 2, 1 h after subcutaneous administration): 200 nM
plasma concentration ([2]; Dog 2, 2 h after subcutaneous administration): 320 nM
plasma concentration ([2]; Dog 2, 4 h after subcutaneous administration): 300 nM
plasma concentration ([2]; Dog 2, 6 h after subcutaneous administration): 370 nM
plasma concentration ([2]; Dog 2, 8 h after subcutaneous administration): 260 nM
plasma concentration ([2]; Dog 2, 24 h after subcutaneous administration): 40 nM
plasma concentration ([2]; Dog 2, 30 h after subcutaneous administration): 10 nM
plasma concentration ([2]; Dog 2, 48 h after subcutaneous administration): 0 nM
plasma concentration ([2]; Dog 3, 0 h after subcutaneous administration): 0 nM
plasma concentration ([2]; Dog 3, 0.25 h after subcutaneous administration): 60 nM
plasma concentration ([2]; Dog 3, 0.5 h after subcutaneous administration): 170 nM
plasma concentration ([2]; Dog 3, 1 h after subcutaneous administration): 240 nM
plasma concentration ([2]; Dog 3, 2 h after subcutaneous administration): 330 nM
plasma concentration ([2]; Dog 3, 4 h after subcutaneous administration): 450 nM
plasma concentration ([2]; Dog 3, 6 h after subcutaneous administration): 360 nM
plasma concentration ([2]; Dog 3, 8 h after subcutaneous administration): 290 nM
plasma concentration ([2]; Dog 3, 24 h after subcutaneous administration): 40 nM
plasma concentration ([2]; Dog 3, 30 h after subcutaneous administration): 20 nM
plasma concentration ([2]; Dog 3, 48 h after subcutaneous administration): 0 nM
affinity for ATIII (ATIII): high affinity for ATIII
